{"source": "ChEMBL document CHEMBL5042495", "about": "“Lead Optimization of Influenza Virus RNA Polymerase Inhibitors Targeting PA-PB1 Interaction” (J Med Chem, 2022)", "key": {"[1]": {"test_system": "Influenza A virus", "experiment": "Antiviral activity against Influenza A virus A/WSN/33(H1N1) strain infected in MDCK cells assessed as reduction in viral infection incubated for 48 hrs by crystal violet staining based assay", "format": "functional, organism-based"}, "[2]": {"test_system": "Influenza A virus", "experiment": "Antiviral activity against Influenza A virus A/California/7/2009(H1N1) strain infected in MDCK cells assessed as reduction in viral infection incubated for 48 hrs by crystal violet staining based assay", "format": "functional, organism-based"}, "[3]": {"experiment": "Cytotoxicity in dog MDCK cells assessed as reduction in cell viability incubated for 48 hrs by crystal violet staining based assay", "format": "toxicity, Canis lupus familiaris"}}, "note": "pEC50: −log10 of the molar value."}
{"smiles": "NC(=O)c1nc(F)cnc1O", "note": "[FAVIPIRAVIR]", "values": [{"measurement": "pEC50", "setting": "[1]", "value": 5.72}, {"measurement": "pEC50", "setting": "[2]", "value": 5.54}]}
{"smiles": "CCc1ccc2[nH]c(=O)c(CN(Cc3ccc(F)cc3)Cc3ccc(C(C)(C)C)cc3)cc2c1", "values": [{"measurement": "pEC50", "setting": "[1]", "value": 6.19}, {"measurement": "CC50 at 48 h", "setting": "[3]", "value": "> 33", "unit": "µM"}]}
{"smiles": "CCCc1ccc2[nH]c(=O)c(CN(Cc3ccc(F)cc3)Cc3ccc(C(C)(C)C)cc3)cc2c1", "values": [{"measurement": "pEC50", "setting": "[1]", "value": 4.55}, {"measurement": "CC50 at 48 h", "setting": "[3]", "value": 8.4, "unit": "µM"}]}
{"smiles": "COc1ccc(C(C)N(Cc2ccc(C(C)(C)C)cc2)Cc2cc3cc(Br)ccc3[nH]c2=O)cc1Cl", "note": "(configuration not stated)", "values": [{"measurement": "pEC50", "setting": "[1]", "value": 6.28}, {"measurement": "CC50 at 48 h", "setting": "[3]", "value": "> 10", "unit": "µM"}]}
{"smiles": "Cc1ccc2[nH]c(=O)c(CN(Cc3ccc(F)cc3)Cc3ccc(C(C)(C)C)cc3)cc2c1", "values": [{"measurement": "pEC50", "setting": "[1]", "value": 6.41}, {"measurement": "CC50 at 48 h", "setting": "[3]", "value": "> 27", "unit": "µM"}]}
{"smiles": "COc1ccc(C(C)N(Cc2ccc(C(C)(C)C)cc2)Cc2cc3cc(C)ccc3[nH]c2=O)cc1", "note": "(configuration not stated)", "values": [{"measurement": "pEC50", "setting": "[1]", "value": 6.59}, {"measurement": "CC50 at 48 h", "setting": "[3]", "value": "> 5", "unit": "µM"}]}
{"smiles": "Cc1ccc2[nH]c(=O)c(CN(Cc3ccc(C(C)(C)C)cc3)C(C)c3ccc(OC(F)F)cc3)cc2c1", "note": "(configuration not stated)", "values": [{"measurement": "pEC50", "setting": "[1]", "value": 6.44}, {"measurement": "CC50 at 48 h", "setting": "[3]", "value": "> 5", "unit": "µM"}]}
{"smiles": "Cc1ccc2cc(C(C)N(Cc3ccc(F)cc3)Cc3ccc(C(C)C)cc3)c(=O)[nH]c2c1", "note": "(configuration not stated)", "values": [{"measurement": "pEC50", "setting": "[1]", "value": 5.72}, {"measurement": "CC50 at 48 h", "setting": "[3]", "value": "> 33", "unit": "µM"}]}
{"smiles": "Cc1ccc2[nH]c(=O)c(CN(Cc3ccc(C(C)(C)C)cc3)Cc3ccc(N(C)C)c(Cl)c3)cc2c1", "values": [{"measurement": "pEC50", "setting": "[1]", "value": 6.66}, {"measurement": "CC50 at 48 h", "setting": "[3]", "value": "> 10", "unit": "µM"}]}
{"smiles": "CCc1ccc2[nH]c(=O)c(CN(Cc3ccc(OC(F)F)cc3)Cc3ccc(C(C)(C)C)cc3)cc2c1", "values": [{"measurement": "pEC50", "setting": "[1]", "value": 6.34}, {"measurement": "CC50 at 48 h", "setting": "[3]", "value": "> 5", "unit": "µM"}]}
{"smiles": "Cc1ccc2[nH]c(=O)c(CN(Cc3ccc(OC(C)C)cc3)Cc3ccc(C(C)(C)C)cc3)cc2c1", "values": [{"measurement": "pEC50", "setting": "[1]", "value": 5.82}, {"measurement": "CC50 at 48 h", "setting": "[3]", "value": "> 5", "unit": "µM"}]}
{"smiles": "Cc1cccc2cc(C(C#N)N(Cc3ccccc3)Cc3ccc(F)cc3)c(=O)[nH]c12", "note": "(configuration not stated)", "values": [{"measurement": "pEC50", "setting": "[1]", "value": 4.42}, {"measurement": "CC50 at 48 h", "setting": "[3]", "value": "> 83", "unit": "µM"}]}
{"smiles": "Cc1ccc2[nH]c(=O)c(CN(Cc3ccc(OCC(=O)O)cc3)Cc3ccc(C(C)(C)C)cc3)cc2c1", "values": [{"measurement": "pEC50", "setting": "[1]", "value": 5.57}, {"measurement": "CC50 at 48 h", "setting": "[3]", "value": "> 10", "unit": "µM"}]}
{"smiles": "CCc1ccc2[nH]c(=O)c(CN(Cc3ccc(F)cc3)Cc3ccc4ccccc4c3)cc2c1", "values": [{"measurement": "pEC50", "setting": "[1]", "value": 5.68}, {"measurement": "CC50 at 48 h", "setting": "[3]", "value": "> 5", "unit": "µM"}]}
{"smiles": "COc1ccc2[nH]c(=O)c(CN(Cc3ccc(C(C)(C)C)cc3)Cc3ccc(C(F)(F)F)c(Cl)c3)cc2c1", "values": [{"measurement": "pEC50", "setting": "[1]", "value": 7.07}, {"measurement": "CC50 at 48 h", "setting": "[3]", "value": "> 10", "unit": "µM"}]}
{"smiles": "Cc1ccc2cc(CN(Cc3ccc(F)cc3)Cc3ccc(C(F)(F)F)cc3)c(=O)[nH]c2c1", "values": [{"measurement": "pEC50", "setting": "[1]", "value": 5.68}, {"measurement": "CC50 at 48 h", "setting": "[3]", "value": "> 33", "unit": "µM"}]}
{"smiles": "C[C@@H](c1ccc(OC(F)(F)F)cc1)N(Cc1ccc(C(C)(C)C)cc1)Cc1cc2cc(C(F)(F)F)ccc2[nH]c1=O", "values": [{"measurement": "pEC50", "setting": "[1]", "value": 6.59}, {"measurement": "CC50 at 48 h", "setting": "[3]", "value": "> 10", "unit": "µM"}]}
{"smiles": "COc1ccc2[nH]c(=O)c(CN(Cc3ccc(N(C)C)cc3)Cc3ccc(C(C)(C)C)cc3)cc2c1", "values": [{"measurement": "pEC50", "setting": "[1]", "value": 6.34}, {"measurement": "CC50 at 48 h", "setting": "[3]", "value": 8.5, "unit": "µM"}]}
{"smiles": "Cc1ccc2[nH]c(=O)c(CN(Cc3ccc(C(C)(C)C)cc3)[C@@H](C)c3ccc(F)cc3)cc2c1", "values": [{"measurement": "pEC50", "setting": "[1]", "value": 6.30}, {"measurement": "CC50 at 48 h", "setting": "[3]", "value": "> 5", "unit": "µM"}]}
{"smiles": "CC(C)c1ccc2[nH]c(=O)c(CN(Cc3ccc(F)cc3)Cc3ccc(C(C)(C)C)cc3)cc2c1", "values": [{"measurement": "pEC50", "setting": "[1]", "value": 5.72}, {"measurement": "CC50 at 48 h", "setting": "[3]", "value": 7.9, "unit": "µM"}]}
{"smiles": "CCc1ccc2[nH]c(=O)c(CN(Cc3ccc(C(C)(C)C)cc3)C(C)c3ccc(F)cc3)cc2c1", "note": "(configuration not stated)", "values": [{"measurement": "pEC50", "setting": "[1]", "value": 6.28}, {"measurement": "CC50 at 48 h", "setting": "[3]", "value": 2.8, "unit": "µM"}]}
{"smiles": "CCc1ccc2[nH]c(=O)c(CN(Cc3ccc(C(C)(C)C)cc3)Cc3ccc(F)c(F)c3)cc2c1", "values": [{"measurement": "pEC50", "setting": "[1]", "value": 4.20}, {"measurement": "CC50 at 48 h", "setting": "[3]", "value": "> 33", "unit": "µM"}]}
{"smiles": "Cc1ccc2[nH]c(=O)c(CN(Cc3ccc(OCC(=O)OC(C)(C)C)cc3)Cc3ccc(C(C)(C)C)cc3)cc2c1", "values": [{"measurement": "pEC50", "setting": "[1]", "value": 5.74}, {"measurement": "CC50 at 48 h", "setting": "[3]", "value": "> 10", "unit": "µM"}]}
{"smiles": "CCCOc1ccc(CN(Cc2ccc(C(C)(C)C)cc2)Cc2cc3cc(C)ccc3[nH]c2=O)cc1", "values": [{"measurement": "pEC50", "setting": "[1]", "value": 5.52}, {"measurement": "CC50 at 48 h", "setting": "[3]", "value": "> 5", "unit": "µM"}]}
{"smiles": "CCc1ccc2[nH]c(=O)c(CN(Cc3ccc(C(C)(C)C)cc3)C(C)c3ccc(OC(F)F)cc3)cc2c1", "note": "(configuration not stated)", "values": [{"measurement": "pEC50", "setting": "[1]", "value": 6.49}, {"measurement": "CC50 at 48 h", "setting": "[3]", "value": "> 5", "unit": "µM"}]}
{"smiles": "Cc1ccc2cc(CN(Cc3ccc(F)cc3)Cc3ccc(C(C)(C)C)cc3)c(=O)[nH]c2c1", "values": [{"measurement": "pEC50", "setting": "[1]", "value": 5.80}, {"measurement": "CC50 at 48 h", "setting": "[3]", "value": "> 33", "unit": "µM"}]}
